Experimental data: PubChem BioAssay (NCI)
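Values below derive from 48-hour exposures of cells grown in 96-well plates, with endpoints linearly interpolated between the two concentrations bracketing the appropriate inhibition level. Here, GI50 denotes the concentration required for 50% inhibition of growth. TGI marks complete inhibition of growth.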

Experiments:
Experiment in all cases: inhibition of tumour cell growth, NCI panel, 48 h
OVCAR-3 ovarian = test system: OVCAR-3 ovarian
SF-295 CNS = test system: SF-295 CNS
U251 CNS = test system: U251 CNS
SNB-19 CNS = test system: SNB-19 CNS
K-562 leukemia = test system: K-562 leukemia
SK-MEL-2 melanoma = test system: SK-MEL-2 melanoma
SF-268 CNS = test system: SF-268 CNS
UO-31 renal = test system: UO-31 renal
M14 melanoma = test system: M14 melanoma
MOLT-4 leukemia = test system: MOLT-4 leukemia

Compound	GI50 (OVCAR-3 ovarian)	TGI (OVCAR-3 ovarian)	GI50 (SF-295 CNS)	TGI (SF-295 CNS)	GI50 (U251 CNS)	TGI (U251 CNS)	GI50 (SNB-19 CNS)	TGI (SNB-19 CNS)	GI50 (K-562 leukemia)	TGI (K-562 leukemia)	GI50 (SK-MEL-2 melanoma)	TGI (SK-MEL-2 melanoma)	GI50 (SF-268 CNS)	TGI (SF-268 CNS)	GI50 (UO-31 renal)	TGI (UO-31 renal)	GI50 (M14 melanoma)	TGI (M14 melanoma)	GI50 (MOLT-4 leukemia)	TGI (MOLT-4 leukemia)
CCNCCNc1cc(-c2ccc(F)cc2)c(C#N)c2nc3ccccc3n12	1.97 µM	4.36 µM	1.8 µM	3.79 µM	2.41 µM	5.05 µM	4.94 µM	17.8 µM	2.15 µM	4.64 µM	14.2 µM	28.3 µM	3.09 µM	12.8 µM	1.82 µM	3.75 µM	1.97 µM	3.63 µM		
COc1cc(C2C(C#N)=C(N)OC3=C2C(=O)c2ccccc2C3=O)cc(OC)c1OC (stereo unspecified)	0.493 µM	4.18 µM	8.29 µM	24.8 µM	3.38 µM	44 µM	11.2 µM	> 100 µM	0.415 µM	> 100 µM	0.998 µM	19.2 µM	6.58 µM	60.7 µM	2.79 µM	21.3 µM	0.395 µM	16.1 µM	4.06 µM	24.4 µM
N#Cc1nc(-c2ccccc2)oc1S(=O)(=O)N1CCOCC1	2.02 µM	3.76 µM	38.2 µM	> 100 µM	17.7 µM	42.2 µM	28 µM	> 100 µM	2.03 µM	> 100 µM	12.7 µM	29.8 µM	13.5 µM	40.4 µM	1.51 µM	2.89 µM	2.26 µM	7.42 µM	2.01 µM	5.08 µM
COc1ccc2c3c(c(OCCCN(C)C)nc2c1)-c1ccc(Cl)cc1C3=O	3.55 µM	16.7 µM	10.6 µM	23.8 µM	4.74 µM	16.6 µM	8.81 µM	28.2 µM	2.38 µM	> 100 µM	19.6 µM	40.3 µM	6.42 µM	21.8 µM	1.51 µM	11.1 µM	11.4 µM	24.2 µM	0.833 µM	38.2 µM
CC(=O)N1CC(F)(F)c2c(Sc3ncc(N4CCC5(CC4)COC[C@H]5N)nc3N)cccc21	16.9 µM	61.5 µM	15.2 µM	50.7 µM	11.1 µM	52.5 µM	14.4 µM	> 100 µM	2.11 µM	20.7 µM	24.7 µM	> 100 µM	17.4 µM	> 100 µM	2.96 µM	25.8 µM	17.9 µM	37.8 µM	21.1 µM	67.7 µM
O=C(/C=C/c1cccc(Cl)c1)c1ccc(Cl)cc1Cl	8.54 µM	17.3 µM	10.1 µM	22.4 µM	8.37 µM	21.1 µM	7.42 µM	17.1 µM	2.86 µM	> 50 µM	11.8 µM	33 µM	10.2 µM	25.1 µM	11.4 µM	25.8 µM	14 µM	31 µM		
CC[C@H](C)[C@H](NC(=O)C12C3C4C1C1C2C3C41NC(C)=O)C(=O)N(C)[C@H](C[C@@H](OC(C)=O)c1nc(C(=O)N[C@@H](Cc2ccccc2)C[C@H](C)C(=O)OC)cs1)C(C)C (stereo partly specified)	0.0565 µM	1.08 µM	0.494 µM	> 14.3 µM	0.434 µM	> 14.3 µM	0.578 µM	> 14.3 µM	0.118 µM	> 14.3 µM	0.162 µM	> 14.3 µM	0.677 µM	> 14.3 µM	8.55 µM	> 14.3 µM	0.259 µM	2.25 µM	0.588 µM	> 14.3 µM
O=C1C(c2ccccc2)=C(c2ccccc2)C(c2ccc(CCCCCCc3ccc(C4=C(c5ccccc5)C(=O)C(c5ccccc5)=C4c4ccccc4)cc3)cc2)=C1c1ccccc1		> 100 µM		> 100 µM		> 100 µM		> 100 µM		> 100 µM		> 100 µM		> 100 µM		> 100 µM		> 100 µM		> 100 µM
O=c1nc2cc(-c3ccccc3)[nH]c2nn1-c1c(Cl)cc(Cl)cc1Cl		54.2 µM		93.2 µM		34.2 µM		> 100 µM		> 100 µM		94 µM		> 100 µM		47 µM		59.3 µM		64.5 µM
Oc1ccccc1-n1c(-c2ccccc2)ccc1-c1ccccc1	9.54 µM	21.7 µM	6.6 µM	21 µM	7.66 µM	20.6 µM	12.7 µM	34.3 µM	5.17 µM	64.3 µM	4.63 µM	19.4 µM	10.5 µM	24.8 µM	2.17 µM	10.6 µM	3.71 µM	29.2 µM	3.81 µM	16.8 µM
COc1ccc(C(=O)C=C2NCCN2)cc1		> 100 µM		> 100 µM		> 100 µM		> 100 µM		> 100 µM		> 100 µM		> 100 µM		> 100 µM		> 100 µM		> 100 µM
O=[N+]([O-])c1ccc(Cl)c(C2SCc3nc4ccccc4n32)c1 (stereo unspecified)		> 100 µM		> 100 µM		> 100 µM		> 100 µM		> 100 µM		> 100 µM		> 100 µM		66.1 µM				> 100 µM
COc1ccc(/C=C\c2cc(OC)c(OC)c(OC)c2)c(NS(=O)(=O)c2ccc(C)cc2)c1O	0.03 µM	1.65 µM	0.0509 µM		0.0418 µM	> 100 µM	0.0549 µM	> 100 µM	0.0409 µM	> 100 µM	1.45 µM	> 100 µM	0.226 µM	> 91.5 µM	0.335 µM	> 65.8 µM	0.0307 µM	> 33.2 µM	0.0421 µM	> 62.9 µM
COc1ccc(NC(=O)c2cc(OC)c(OC)c(OC)c2)cc1O			2.78 µM	> 100 µM	3.71 µM	> 100 µM	4.73 µM	> 100 µM	0.489 µM	> 100 µM	2.58 µM	> 100 µM	5.43 µM	> 100 µM	18.1 µM	> 100 µM	2.91 µM	> 100 µM	3.42 µM	> 100 µM
COc1cc(C2C(C(=O)Nc3ccccc3)=C(C)NC(C)=C2C(=O)Nc2ccccc2)ccc1O		55.9 µM		> 100 µM		> 100 µM		> 100 µM		> 100 µM		76.8 µM		> 100 µM		> 100 µM				> 100 µM
CN(O)C(=O)Cc1ccccc1		> 100 µM		> 100 µM		> 100 µM		> 100 µM		> 100 µM				> 100 µM		> 100 µM		> 100 µM		> 100 µM
Cn1c(=O)c2[nH]c(COc3ccc(C(C)(C)C)cc3)nc2n(C)c1=O	12.3 µM	33.6 µM	4.03 µM	> 100 µM	37.5 µM	> 100 µM	82.3 µM	> 100 µM	3.28 µM	> 100 µM			14.1 µM	> 100 µM	13.6 µM	89.5 µM	15 µM	41.4 µM	3.94 µM	31.2 µM

Compound	GI50 (OVCAR-3 ovarian)	TGI (OVCAR-3 ovarian)	GI50 (SF-295 CNS)	TGI (SF-295 CNS)	GI50 (U251 CNS)	TGI (U251 CNS)	GI50 (SNB-19 CNS)	TGI (SNB-19 CNS)	GI50 (K-562 leukemia)	TGI (K-562 leukemia)	GI50 (SK-MEL-2 melanoma)	TGI (SK-MEL-2 melanoma)	GI50 (SF-268 CNS)	TGI (SF-268 CNS)	GI50 (UO-31 renal)	TGI (UO-31 renal)	GI50 (M14 melanoma)	TGI (M14 melanoma)	GI50 (MOLT-4 leukemia)	TGI (MOLT-4 leukemia)
FC(F)(F)c1ccc(-c2cnc(Br)nc2NC2CCCCCC2)cc1	70.8 µM	> 100 µM	69.6 µM	> 100 µM	75 µM	> 100 µM	> 100 µM	> 100 µM	50.4 µM	> 100 µM			> 100 µM	> 100 µM	33.9 µM	> 100 µM	> 100 µM	> 100 µM	41 µM	> 100 µM
C=C(C)[C@H]1CC/C(C)=C/CCC(C)C(=O)CC/C(CO)=C\[C@@H]1O (stereo partly specified)	> 100 µM	> 100 µM	70 µM	> 100 µM	90.3 µM	> 100 µM			65.6 µM	> 100 µM	> 100 µM	> 100 µM	88.9 µM	> 100 µM	> 100 µM	> 100 µM	87.7 µM	> 100 µM	56.6 µM	> 100 µM
CC(C)C(N)(C(=O)O)c1ccccc1 (stereo unspecified)		> 100 µM		> 100 µM		> 100 µM		> 100 µM		> 100 µM		> 100 µM		> 100 µM		> 100 µM		> 100 µM		
COc1ccccc1-n1c(SCc2cc(OC)c(OC)c(OC)c2)nc2ccc(Cl)cc2c1=O	2.21 µM	15.9 µM			3.72 µM	> 100 µM			1.02 µM	> 100 µM	4.88 µM	> 100 µM	23.1 µM	> 100 µM	8.52 µM	> 100 µM	2.22 µM	> 100 µM	3.05 µM	> 100 µM
CC1=C2C(c3ccccc3)(c3ccccc3)C3C=CC2(C=N3)N(C(=O)NC2CCCCC2)C1=O (stereo unspecified)		28.2 µM		31.2 µM		30.6 µM		32.9 µM		34.6 µM				34.7 µM		27.3 µM		31.2 µM		35.8 µM
CCOC(=O)C(C[Si](C)(C)C)P(=O)(OCC)OCC (stereo unspecified)		> 100 µM		> 100 µM		> 100 µM				> 100 µM				> 100 µM		> 100 µM		> 100 µM		> 100 µM
O=Cc1coc2ccccc2c1=O		> 100 µM		41.2 µM		65.2 µM		70.4 µM		55.5 µM				56.7 µM		28.8 µM		38.5 µM		96.1 µM
CC1OC(O)C(O)C(O)C1O (stereo unspecified)		> 100 µM		> 100 µM		> 100 µM		> 100 µM		> 100 µM		> 100 µM		> 100 µM		> 100 µM		> 100 µM		
CCOC(=O)C12CC1(C(=O)OCC)C1CCC2C1 (stereo unspecified)		> 100 µM		> 100 µM		> 100 µM		> 100 µM		> 100 µM				> 100 µM		> 100 µM		> 100 µM		> 100 µM
CCC1(OC(C)=O)C(=O)OCc2c1cc1n(c2=O)Cc2cc3ccccc3nc2-1 (stereo unspecified)		> 100 µM		> 100 µM		2.64 µM		> 100 µM		> 100 µM		> 100 µM		> 100 µM		8.19 µM		> 33 µM		
COC1=C(OC)CCC(/C(C#N)=C/c2ccc(OC)c(OC)c2)=C1		> 100 µM		> 100 µM		> 100 µM				> 100 µM		> 100 µM		> 100 µM		> 100 µM		> 100 µM		> 100 µM
COc1ccc([C@H]2O[C@@H](CO)C[C@]2(O)c2ccc(OC)cc2)cc1	> 100 µM	> 100 µM	> 100 µM	> 100 µM	> 100 µM	> 100 µM	> 100 µM	> 100 µM	> 100 µM	> 100 µM			> 100 µM	> 100 µM	> 100 µM	> 100 µM			> 100 µM	> 100 µM
Cc1ccc(NC(=O)C(=O)Cc2nc3ccccc3o2)c(C)c1		> 100 µM		> 100 µM		> 100 µM		> 100 µM		> 100 µM		> 100 µM		> 100 µM		> 100 µM		> 100 µM		
COc1ccccc1/C=C\c1cc(OC)c(OC)c(OC)c1		55.6 µM		> 100 µM		> 100 µM		> 100 µM		> 100 µM						60.4 µM		> 100 µM		98.6 µM
c1ccc(-c2nc(N3CCNCC3)c3nc(-c4ccccc4)oc3n2)cc1	1.78 µM	3.25 µM	1.86 µM	3.38 µM			1.74 µM	3.34 µM	1.44 µM	4.22 µM	1.91 µM	3.74 µM	1.73 µM	3.46 µM	1.53 µM	2.91 µM	1.96 µM	3.71 µM		
COc1ccc2c(c1)OC13Oc4cc(OC)ccc4C=C1CCCC3=C2			> 100 µM	> 100 µM	> 100 µM	> 100 µM	> 100 µM	> 100 µM	> 100 µM	> 100 µM	> 100 µM	> 100 µM	> 100 µM	> 100 µM			> 100 µM	> 100 µM	5.81 µM	> 100 µM
